Assay results: patent publication US8592419B2, “Ceramides and apoptosis-signaling ligand” (MUSC Foundation for Research Development, priority 2004, dated 2013)

Experiments:
DU145 cells [1] = experiment: MTS cell viability assay in DU145 cells; assay type: cell-based, human; conditions: in vitro
Procedure: MTS cytotoxicity assays for LCL204 treatments. Cell viability was determined using the CellTiter 96 AQueous One Solution Cell Proliferation Assay (Promega; Madison, Wis., USA). 1×10^4 cells per well were seeded in 96-well plates overnight. The next day media was removed and replaced with either 100 μl media with vehicle control or media containing LCL204 at desired concentrations. Assays were carried out according to manufacturer's instruction as previously described (60). For experiments using enzyme inhibitors and LCL204, media was removed and replaced with 50 μl media containing vehicle only or indicated inhibitor. Cells were pretreated 1 hour at 37° C. before adding 50 μl media containing vehicle, inhibitor only, LCL204 only (2× concentration), or a combination. The remainder of the assay was carried out as described above.

Caspases 3 and 7 = experiment: Caspase 3/7 activity assay; assay type: cell-based, human; conditions: DU145 cells, 24 hours treatment
Procedure: Caspase 3/7 Activity Assay. Cells were seeded overnight in clear bottom black 96 well plates (Corning; Acton Mass.). The next day, medium was removed and replaced with medium containing vehicle or LCL204 at indicated concentrations. After 24 hours treatment, Caspases 3 and 7 activities were measured using Apo-ONE Homogeneous Caspase 3/7 assay according to the manufacturer's instructions (Promega). Fluorescence was measured using a Fluostar dual fluorescence/absorbance plate reader (BMG Laboratories; Durham, N.C., USA) with 485 nm excitation and 520 nm emission filter set.

acid ceramidase (AC) = biological target: T1, acid ceramidase (AC) (Homo sapiens, UniProt Q13510); experiment: Immunoblot of acid ceramidase protein; assay type: cell-based; conditions: DU145 cells
T1 construct: endogenous in cells
T1 sequence (Q13510 22-395): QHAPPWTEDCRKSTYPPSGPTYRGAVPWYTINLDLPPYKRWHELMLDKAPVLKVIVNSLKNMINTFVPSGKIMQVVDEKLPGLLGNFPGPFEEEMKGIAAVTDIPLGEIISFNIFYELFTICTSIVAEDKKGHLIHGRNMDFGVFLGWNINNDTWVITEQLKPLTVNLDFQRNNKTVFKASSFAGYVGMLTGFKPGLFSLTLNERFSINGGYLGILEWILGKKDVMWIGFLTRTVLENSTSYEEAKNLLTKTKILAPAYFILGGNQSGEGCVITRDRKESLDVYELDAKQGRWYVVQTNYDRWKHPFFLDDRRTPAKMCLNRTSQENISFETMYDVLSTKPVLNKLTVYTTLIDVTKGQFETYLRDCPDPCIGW
Procedure: (§1) Immunoblot analysis. Cells were seeded in 60mm plates as described above and treated accordingly. Cells were lifted by gently scraping the plates, washed once with ice cold PBS and then lysed in lysis buffer (PBS, 1% Triton X-100, 10% glycerol) containing protease inhibitors pepstatin A (0.5 μg/ml), leupeptin (0.5 μg/ml), aprotinin (5 μg/ml), and PMSF (100 μg/ml) for 10 minutes on ice. Insoluble material was removed by centrifugation at 14,000 rpm for 15 minutes at 4° C. The supernatants were then supplemented with SDS at a final concentration of 2% and stored at −80° C. Protein concentrations were determined using the DC Protein Assay (BioRad Laboratories; Hercules, CA, USA) according to the manufacturer's instructions. 50 μg of protein per sample (unless otherwise indicated) were separated on NuPAGE 4-12% Bis-Tris gels (Invitrogen; Carlsbad, CA, USA) and transferred to nitrocellulose membranes (BioRad). Following transfer, membranes were blocked for 1 hour at room temperature in Tris-buffered saline (TBS) containing 0.1% Tween-20 and 5% nonfat dry milk and incubated overnight at 4° C. with primary antibody at a dilution of 1:2,000(actin), 1:1,000(cytochrome c, COX IV, Bax, Bak, p53, p38, P-p38), 1:500(P-JNK, JNK), 1:250 (AC, p73), or 1:400(LAMP-1, cathepsin B). Overnight incubations were performed in 5% milk in TBS-Tween. Following overnight incubation, membranes were washed three times for 10 minutes each in TBS-Tween and incubated for 1 hour at room temperature with secondary antibody in 5% milk TBS-Tween at a dilution 1:5,000 (goat anti-mouse IgG) or 1:50,000 (goat anti-rabbit). Membranes were then washed three times more and incubated for 5 minutes at room temperature with Super Signal HRP substrate (Pierce Biotechnology Inc.; Rockford, IL, USA).

AC mRNA = experiment: Reverse transcriptase PCR of AC mRNA; assay type: cell-based, human; conditions: 10 μM, DU145 cells
Procedure: Reverse Transcriptase PCR. DU145 cells were seeded in 6-well plates as described above. […] Cells were collected at indicated time points and total RNA was extracted using RNAqueous-4PCR kit (Ambion Inc.; Austin, TX), including the DNase I treatment step to remove DNA contamination. The level of transcripts of AC was assayed by two-step RT-PCR protocol (Ambion) and Rig/S15 was used as an internal control. The sequence of the primer for amplification of AC is as followed: [NT] 375 bp. All reactions were performed in a programmable thermal cycler (reverse transcription at 55° C. for 1 hour; PCR at 95° C., 3 minutes; 95° C., 30 second; 52° C., 1 minute and extension at 72° C. for 1 minute; final extension at 72° C., 10 minutes).

p53 = experiment: Immunoblot of p53; assay type: cell-based, human; conditions: DU145 cells, 10 μM
Procedure: as §1, with “Following overnight incubation, membranes were washed three times for 10 minutes each in TBS-Tween and incubated for 1 hour at room temperature with secondary antibody in 5% milk TBS-Tween at a dilution 1:5,000 (goat anti-mouse IgG) or 1:50,000 (goat anti-rabbit). Membranes were then washed three times more and incubated for 5 minutes at room temperature with Super Signal HRP substrate (Pierce Biotechnology Inc.; Rockford, IL, USA).” left out

DU145 cells [2] = experiment: Cell death by MTS assay, ceramide analog combined with AdGFPFasL virus; assay type: cell-based, human
Procedure: LCL102, a ceramidase inhibitor, which acts to increasing intracellular ceramide levels by […], were tested in this system. This molecule was highly efficient at activating cell death in DU145 cells at nontoxic doses if combined with AdGFPFasL virus at MOIs achievable in vivo. DU145 cells growing in 96 well plates at 1×10^4 cells/well are treated with either media alone or LCL102 at 2 uM for 48 hours followed by AdGFPFasL for 24 hours at the MOI (5-80). Cell death is assayed by the MTS assay. At 2 uM LCL102 and 5MOI of virus, cell death is amplified 4-fold compared to LCL102 alone (FIG. 14).

[3] = test system: cFLIPS, Survivin, cIAP-1, RIP, Caspase 8; experiment: Anti-apoptotic proteins and caspase 8 after LCL204; conditions: DU145 cells

CCCCCCCCCCCCCCN[C@H](CO)[C@H](O)c1ccc([N+](=O)[O-])cc1.Cl [LCL204, (1R,2R) D-threo-2-N-Tetradecylamino-1-(4′-nitrophenyl)-1,3-propandiol hydrochloride]
potency as inducer of cell death compared with B13 (DU145 cells [1]): much more potent inducer of cell death than B13 | executioner caspase activity (Caspases 3 and 7): dose-dependent executioner caspase activity | earliest down-regulation of AC (acid ceramidase (AC); 5 μM): 2 h | AC expression levels (acid ceramidase (AC)): dose and time-dependent decrease in AC expression levels | AC mRNA levels (AC mRNA): no decrease in AC mRNA levels | p53 induction (p53): induced p53 in DU145 cells after four hours | increase in cancer cell death (DU145 cells [2]; 2 μM in combination with AdGFPFasL virus at low MOIs): ≤ 10 fold | viral infectivity (DU145 cells [2]; DU145 cells): not modifying viral infectivity | increase of the ability of AdGFPFasL to kill tumor cells (DU145 cells [2]; in vitro, subtoxic doses): as much as ten-fold | Caspase 8 [3]: unaffected | anti-apoptotic proteins [3]: down-regulation of anti-apoptotic proteins cFLIPS, Survivin, cIAP-1, and RIP
